Assay results taken from patent publication US20240285571A1, “METHODS OF TREATING BONE INFECTIONS” (MICROBION CORPORATION, priority 2020, published 2024).
Converted amounts (≈) assume the structure as drawn. Like-named read-outs stand apart in the source and are kept apart here. Values belong to the compound of their own block, whether it stands above or below them.

Tests used:
E. coli ATCC 25922 = conditions: per CLSI M100-S24 or provided by Microbion; cited from earlier work
[1] = tested on: baseline pathogens at the surgical site; assay: Phase 2a study: microbiological success / post-baseline microbiology at the index site; assay type: in vivo, human; conditions: Subject 001-002; Subject 006-003, S. aureus (MRSA); 0.5 μg/cm^2 dose group
Experimental: Microbiology was assessed on Day 1 and at the time of any subsequent surgical procedure at the index site. Samples were collected from the infected bone site or involved tissue adjacent to any implant(s), swabs of the deep infection site, and the superficial tissue/wound closure/sinus tract site. Isolation and identification of aerobic and anerobic bacteria was conducted at a central microbiology laboratory (IHMA, Schaumburg, IL) and susceptibility of the isolates to MBN-101 (BisEDT) and comparator agents was performed per Clinical and Laboratory Standards Institute (CLSI). Parallel sets of samples were analyzed by the local clinical site laboratory to guide patient antibiotic treatment.
Clinical activity of locally administered MBN-101 was assessed by the following: • Proportion of treatment failures. […] Pain intensity at the surgical site was assessed by VAS (0 to 10 scale). • Findings of microbiology evaluations at the surgical site. Microbiologic success was assessed by clearance of infection. • Findings of radiographic evaluations at the surgical site. Radiographic success was assessed by healing on radiologic examination. • Change in serologic markers CRP and ESR at each post-baseline time point. […]

S. aureus ATCC 29213 = conditions: per CLSI M100-S24 or provided by Microbion; cited from earlier work
[2] = tested on: relevant ATCC QC organisms; conditions: CLSI established QC range, cited from earlier work
N. gonorrhoeae = N. gonorrhoeae MMX 683 (ATCC 49226); cited from earlier work
C. difficile [3] = conditions: C. difficile MMX 4381 (ATCC 700057); cited from earlier work
B. fragilis [4] = assay: Agar dilution MIC, anaerobes (Example 5); assay type: cell-based; conditions: Bacteroides fragilis, ATCC25285; B. fragilis MMX 123 (ATCC 25285); QC; read-out: MIC
B. fragilis [5] = conditions: B. fragilis MMX 123 (ATCC 25285); cited from earlier work
C. difficile [6] = assay: Agar dilution MIC, anaerobes (Example 5); assay type: cell-based, Clostridium difficile; conditions: Clostridioides difficile, read-out: MIC

SMILES: C1C[S][Bi]([S]CC[S][Bi]2[S]CC[S]2)[S]1 [BisEDT, bismuth-1,2-ethanedithiol]
MIC, acceptable range (E. coli ATCC 25922): 0.5 to 2 µg/mL | MIC, expected results (E. coli ATCC 25922): 1 µg/mL | Change of BisEDT MIC, baseline vs post-baseline isolates from the same source [1]: unchanged | MIC, acceptable range (S. aureus ATCC 29213): 0.13 to 1 µg/mL | MIC, expected results (S. aureus ATCC 29213): 0.25 to 0.5 µg/mL | MIC QC range (in parentheses) ([2]; E. coli ATCC 25922): (0.5-4)1 μg/mL | MIC QC range (in parentheses) ([2]; P. aeruginosa ATCC 27853): (0.5-4) μg/mL | MIC QC range (in parentheses) ([2]; S. aureus ATCC 29213): (0.12-1) μg/mL

SMILES: CO/N=C(\C(=O)N[C@@H]1C(=O)N2C(C(=O)O)=C(CSc3nc(=O)c(=O)[nH]n3C)CS[C@H]12)c1csc(N)n1 [Ceftriaxone]
CLSI QC range of MIC (N. gonorrhoeae): (0.004-0.015) μg/mL

MIC (B. fragilis [4]): 0.5 µg/mL (≈ 2.92 µM) | MIC (C. difficile [6]; ATCC700057, C. difficile MMX 4381 (ATCC 700057), QC, CCI): 0.5 µg/mL (≈ 2.92 µM) | MIC (C. difficile [6]; C. difficile MMX 8272, ribotype 255, CCI): 0.5 µg/mL (≈ 2.92 µM) | MIC (C. difficile [6]; C. difficile MMX 8279, ribotype 005, CCR): 0.5 µg/mL (≈ 2.92 µM) | MIC (C. difficile [6]; C. difficile MMX 8281, ribotype 010, CCR): 8 µg/mL (≈ 46.7 µM) | MIC (C. difficile [6]; NCTC13307, C. difficile MMX 5681 (NCTC 13307), ribotype 012, CCR): 0.5 µg/mL (≈ 2.92 µM) | MIC (C. difficile [6]; NCTC13336, C. difficile MMX 5680 (NCTC 13336), ribotype 027, CCI METR): > 64 µg/mL
SMILES: Cc1ncc([N+](=O)[O-])n1CCO [Metronidazole]
CLSI QC range of MIC (C. difficile [3]): (0.12-0.5) μg/mL | CLSI QC range of MIC (B. fragilis [5]): (0.25-1) μg/mL
